In patent publication US20230102192A1, “THERAPIES FOR THE TREATMENT OF DISEASES AND DISORDERS ASSOCIATED WITH ABNORMAL EXPRESSION OF A NEURAL-ASSOCIATED GENE” (The Regents of the University of California, priority 2020, published 2023):
“Also recorded” adds a separate entry of the source.

Assays:
Format in all cases: cell-based, human
control neurons = assay: Effect of treatment on control neurons
Description: (§1) Pharmacologic treatment. One-month old cortical organoids were treated for 1 mo with either Nefiracetam (10 μM) or PHA 543613 (10 μM) during media changes.
(§2) Pharmacologic screening identifies two compounds that specifically reverse MECP2-KO phenotypes. 14 commercially available pharmacologic compounds with mechanisms of action that counteract the synapse and neurotransmitter pathologies were selected and which are identified in FIG. 5B. […] MECP2-KO and control neurons were treated with each of the 14 compounds and employed a tiered series of assays to identify those that could selectively rescue MECP2-KO pathology without affecting controls. […] The capacity of these compounds to increase pre and post co-localized synaptic puncta in MECP2-KO neurons were evaluated, again eliminating the drugs that affected control neurons (see FIG. 5F-G, and FIG. 6C-D).

[1] = tested on: MECP2-KO cortical organoids; assay: MEA electrophysiology of cortical organoids; details: 1 μM for one month, compared with control organoids
Description: (§3) Multi-electrode array (MEA) analysis. MEA analyses of neurons and cortical organoids were performed as described in Nageshappa et al. (Mol. Psychiatry 21:178-188 (2016)). Briefly, 3D neurosphere cultures of NPC derivation were plated on dual-chamber MEA; spontaneous spike activity was evaluated with the MED64 System (Panasonic). Glutamatergic (AP5, NBQX), GABAergic (Gabazine), and gap channel (Mefloquine) antagonism were used to check neuronal activity. After measurement, neurons were immunostained to check morphology and density. Recorded spikes were analyzed with the software Neuroexplorer (Nex Technologies, Madison, Ala., USA). For cortical organoids, 1-month organoids were plated on MEA plates and recordings were collected with a Maestro MEA system and AxIS Software Spontaneous Neural Configuration (Axion Biosystems, Atlanta, Ga., USA) using a customized script. The plate rested in the machine for three minutes followed by four minutes of recording. […] The synchrony index was calculated using a 20 ms cross-correlogram synchrony window was used to determine the synchrony index. […]
Nefiracetam and PHA 543613 rescue network activity in MECP2-KO cortical organoids. The therapeutic efficacy of Nefiracetam and PHA 543613 was evaluated with cortical organoids, a complex, three-dimensional human neurodevelopmental model that closely recapitulates aspects of human fetal neurodevelopment. […]

MECP2-KO neurons [2] = assay: Co-localized pre/postsynaptic puncta quantification in neurons; details: one-month old MECP2-KO neurons treated two weeks
Description: as §1
Synaptic puncta quantification. Co-localized pre and postsynaptic puncta (Vglut and Homer1 immunostained) along MAP2-positive processes were quantified. Primary antibodies (see above) incubated 2 h, secondary antibodies incubated 1 h, and coverslips were mounted. Slides were analyzed under fluorescence microscopy.
as §2

[3] = tested on: MECP2-mosaic (CTR/KO) neurospheres; assay: MEA analysis of neurospheres; details: 1 μM, after 5 weeks of treatment, vs CTR/KO untreated
Description: as §3, with “recording. Axion Biosystems' Neural Metrics Tool classified electrodes with at least 5 spikes/min as active. Bursts were identified using an inter-spike interval (ISI) threshold requiring a 5-spike minimum and 100 ms maximum ISI.” for “recording.”

MECP2-KO neurons [4] = assay: Multi-electrode array (MEA) of neurons
Description: as §1
as §3, with “recording. Axion Biosystems' Neural Metrics Tool classified electrodes with at least 5 spikes/min as active.” for “recording.”

SMILES	effect on controls (control neurons)	population spiking (MEA) [1]	synaptogenesis / co-localized synaptic puncta (MECP2-KO neurons [2])	MEA overall spike count / spike frequency [3]	MEA spike frequency / network spiking activity (MECP2-KO neurons [4])
Cc1cccc(C)c1NC(=O)CN1CCCC1=O [Nefiracetam, nefiracetam]	leaving controls unaffected	increased population spiking to a level not significantly different from that of control organoids	specifically increased synaptogenesis	increased	increases network spiking activity; also recorded: restore
O=C(N[C@H]1CN2CCC1CC2)c1cc2ccoc2cn1 [PHA 543613, N-[(3R)-1-azabicyclo[2.2.2]oct-3-yl]furo[2,3-c]pyridine-5-carboxamide]	leaving controls unaffected	increased population spiking to a level not significantly different from that of control organoids	increases synaptic puncta	increased	increases network spiking activity; also recorded: restore
